Active and inactive are the calls of the source. The calls are words filed in the database; no cut-off is given here.
How the values were obtained:
[1] = Cmax in Sprague-Dawley rat at 2 mg/kg, iv measured upto 24 hrs by LC-MS/MS analysis; format: ADME, organism-based; design: route intravenous, dose 2 mg/kg, time <=24; settings: in vivo
[2] = Efflux ratio of permeability across basolateral to apical side over apical to basolateral side in human Caco-2 cells by LC-MS/MS analysis; format: ADME, cell-based
L929 = assay: Anti-necroptic activity in mouse L929 cells assessed as TNFalpha/Z-VAD (TSZ) induced necroptosis by measuring cell viability preincubated for 1 hr followed by TSZ addition and measured after 24 hrs by celltiter-glo luminescent cell viability assay; format: functional, cell-based
[3] = Metabolic stability in human liver microsomes assessed as half life by LC-MS/MS analysis; format: ADME
[4] = biological target: Voltage-gated inwardly rectifying potassium channel KCNH2 (Homo sapiens, UniProt Q12809); assay: Inhibition of hERG expressed in CHO cells at -80 mV holding potential measured after 4mins by automated patch-clamp assay; format: toxicity, cell-based
Chain of Voltage-gated inwardly rectifying potassium channel KCNH2 (Q12809 whole entry): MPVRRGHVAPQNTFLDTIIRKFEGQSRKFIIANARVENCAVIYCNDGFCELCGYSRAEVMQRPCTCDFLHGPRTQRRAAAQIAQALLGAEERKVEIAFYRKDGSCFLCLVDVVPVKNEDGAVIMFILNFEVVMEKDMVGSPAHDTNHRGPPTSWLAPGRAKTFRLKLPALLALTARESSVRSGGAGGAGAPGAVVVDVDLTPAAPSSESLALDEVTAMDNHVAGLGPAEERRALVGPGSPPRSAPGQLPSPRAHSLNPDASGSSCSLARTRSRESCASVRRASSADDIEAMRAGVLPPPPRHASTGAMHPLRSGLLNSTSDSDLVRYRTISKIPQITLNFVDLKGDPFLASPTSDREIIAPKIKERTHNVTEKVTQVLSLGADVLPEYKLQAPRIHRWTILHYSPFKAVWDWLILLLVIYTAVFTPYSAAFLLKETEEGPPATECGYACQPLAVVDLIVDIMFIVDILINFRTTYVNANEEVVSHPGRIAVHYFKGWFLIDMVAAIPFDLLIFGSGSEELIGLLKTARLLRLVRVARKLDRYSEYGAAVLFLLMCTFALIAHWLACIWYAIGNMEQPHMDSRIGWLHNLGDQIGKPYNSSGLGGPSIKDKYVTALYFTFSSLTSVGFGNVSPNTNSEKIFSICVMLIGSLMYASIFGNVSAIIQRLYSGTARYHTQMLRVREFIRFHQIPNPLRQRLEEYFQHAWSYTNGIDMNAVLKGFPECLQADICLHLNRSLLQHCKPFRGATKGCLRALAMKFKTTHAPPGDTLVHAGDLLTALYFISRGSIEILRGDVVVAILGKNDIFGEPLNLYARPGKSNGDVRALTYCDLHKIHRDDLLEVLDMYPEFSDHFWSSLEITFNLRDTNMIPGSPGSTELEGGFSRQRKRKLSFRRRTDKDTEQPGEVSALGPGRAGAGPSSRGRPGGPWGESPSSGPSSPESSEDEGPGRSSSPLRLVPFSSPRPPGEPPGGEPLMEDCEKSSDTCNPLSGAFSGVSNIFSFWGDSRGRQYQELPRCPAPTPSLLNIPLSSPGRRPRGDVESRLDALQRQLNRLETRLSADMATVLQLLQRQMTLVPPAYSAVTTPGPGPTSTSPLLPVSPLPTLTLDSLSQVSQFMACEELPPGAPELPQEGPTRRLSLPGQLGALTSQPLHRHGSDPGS

CYP2C9 = CYP2C9 (Homo sapiens, UniProt P11712); assay: Inhibition of CYP2C9 (unknown origin) using tolbutamide as cocktail probe substrate at 10 uM preincubated for 20 mins followed by substrate addition and measured after 20 mins by LC-MS/MS analysis relative to control; format: ADME; settings: time 40 min
Chain of CYP2C9 (P11712 whole entry): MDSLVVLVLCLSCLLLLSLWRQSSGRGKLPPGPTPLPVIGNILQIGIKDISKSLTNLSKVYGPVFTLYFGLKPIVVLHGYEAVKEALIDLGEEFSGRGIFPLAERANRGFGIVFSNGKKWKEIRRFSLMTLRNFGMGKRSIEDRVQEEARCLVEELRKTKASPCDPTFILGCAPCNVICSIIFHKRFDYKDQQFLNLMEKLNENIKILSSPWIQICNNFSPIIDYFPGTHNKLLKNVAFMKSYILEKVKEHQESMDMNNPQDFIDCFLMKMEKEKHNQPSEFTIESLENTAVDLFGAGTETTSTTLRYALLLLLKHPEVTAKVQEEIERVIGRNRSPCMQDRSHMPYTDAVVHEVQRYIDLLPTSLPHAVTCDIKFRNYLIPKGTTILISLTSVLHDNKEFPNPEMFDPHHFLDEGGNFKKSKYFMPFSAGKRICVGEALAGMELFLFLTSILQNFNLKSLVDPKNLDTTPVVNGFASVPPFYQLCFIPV

CYP2C19 = CYP2C19 (Homo sapiens, UniProt P33261); assay: Inhibition of CYP2C19 (unknown origin) using cocktail of probe as substrate at 10 uM preincubated for 20 mins followed by substrate addition and measured after 20 mins by LC-MS/MS analysis relative to control; format: ADME; settings: time 40 min
Chain of CYP2C19 (P33261 whole entry): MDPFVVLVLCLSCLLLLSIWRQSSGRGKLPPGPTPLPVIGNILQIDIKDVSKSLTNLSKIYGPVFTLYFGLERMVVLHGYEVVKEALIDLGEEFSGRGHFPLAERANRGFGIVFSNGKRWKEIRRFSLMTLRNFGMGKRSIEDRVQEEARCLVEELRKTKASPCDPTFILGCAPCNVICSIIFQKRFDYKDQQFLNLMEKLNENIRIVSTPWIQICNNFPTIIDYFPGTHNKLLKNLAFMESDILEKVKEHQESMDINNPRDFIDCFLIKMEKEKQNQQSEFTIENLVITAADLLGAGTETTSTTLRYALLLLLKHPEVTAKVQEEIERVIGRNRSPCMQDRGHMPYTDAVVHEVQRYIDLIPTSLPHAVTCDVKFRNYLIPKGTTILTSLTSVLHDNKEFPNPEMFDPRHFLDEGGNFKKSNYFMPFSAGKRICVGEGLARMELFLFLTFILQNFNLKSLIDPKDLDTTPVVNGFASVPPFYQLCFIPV

CYP2D6 = CYP2D6 (Homo sapiens, UniProt P10635); assay: Inhibition of CYP2D6 (unknown origin) using dextromethorphan as cocktail probe substrate at 10 uM preincubated for 20 mins followed by substrate addition and measured after 20 mins by LC-MS/MS analysis relative to control; format: ADME; settings: time 40 min
Chain of CYP2D6 (P10635 whole entry): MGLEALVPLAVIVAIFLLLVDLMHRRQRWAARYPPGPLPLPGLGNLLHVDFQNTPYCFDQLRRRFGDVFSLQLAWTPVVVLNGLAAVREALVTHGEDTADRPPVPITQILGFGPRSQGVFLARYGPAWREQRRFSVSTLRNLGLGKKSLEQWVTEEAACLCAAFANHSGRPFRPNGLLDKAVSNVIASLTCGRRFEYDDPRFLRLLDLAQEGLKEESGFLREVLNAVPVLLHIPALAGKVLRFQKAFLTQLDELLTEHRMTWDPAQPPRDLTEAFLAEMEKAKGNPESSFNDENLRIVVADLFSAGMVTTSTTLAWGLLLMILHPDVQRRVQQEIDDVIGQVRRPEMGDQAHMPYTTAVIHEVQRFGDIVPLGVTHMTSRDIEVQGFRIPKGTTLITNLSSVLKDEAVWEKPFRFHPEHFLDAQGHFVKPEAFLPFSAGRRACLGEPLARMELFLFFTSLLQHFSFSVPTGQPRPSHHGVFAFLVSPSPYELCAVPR

CYP3A4 = CYP3A4 (Homo sapiens, UniProt P08684); assay: Inhibition of CYP3A4 (unknown origin) using midazolam as cocktail probe substrate at 10 uM preincubated for 20 mins followed by substrate addition and measured after 20 mins by LC-MS/MS analysis relative to control; format: ADME; settings: time 40 min
Chain of CYP3A4 (P08684 whole entry): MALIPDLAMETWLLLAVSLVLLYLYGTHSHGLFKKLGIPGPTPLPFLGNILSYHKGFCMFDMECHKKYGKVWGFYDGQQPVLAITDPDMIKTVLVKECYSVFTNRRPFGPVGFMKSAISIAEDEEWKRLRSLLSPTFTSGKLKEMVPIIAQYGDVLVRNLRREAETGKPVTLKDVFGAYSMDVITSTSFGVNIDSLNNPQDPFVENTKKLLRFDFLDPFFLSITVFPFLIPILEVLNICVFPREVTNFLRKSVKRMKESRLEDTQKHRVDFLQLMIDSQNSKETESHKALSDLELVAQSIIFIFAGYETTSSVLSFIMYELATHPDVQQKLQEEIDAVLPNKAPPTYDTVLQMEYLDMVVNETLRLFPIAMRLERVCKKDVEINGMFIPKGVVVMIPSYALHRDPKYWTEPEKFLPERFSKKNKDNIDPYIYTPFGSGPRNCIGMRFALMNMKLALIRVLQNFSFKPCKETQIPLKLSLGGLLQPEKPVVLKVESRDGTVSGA

[5] = Protein binding in human plasma by LC-MS/MS based equilibrium dialysis method; format: ADME, cell-free; settings: read-out: PPB (converted)
[6] = Protein binding in rat plasma by LC-MS/MS based equilibrium dialysis method; format: ADME, cell-free; settings: read-out: PPB (converted)
[7] = Metabolic stability in rat liver microsomes assessed as half life by LC-MS/MS analysis; format: ADME, Microsome
[8] = Metabolic stability in rat liver microsomes assessed as intrinsic clearance by LC-MS/MS analysis; format: ADME, Microsome; settings: read-out: CLH
[9] = AUC (0 to 24 hrs) in Sprague-Dawley rat at 10 mg/kg, po measured upto 24 hrs by LC-MS/MS analysis; format: ADME, organism-based; design: route oral, dose 10 mg/kg, time <=24; settings: in vivo
[10] = Volume of distribution at steady state in Sprague-Dawley rat at 2 mg/kg, iv measured upto 24 hrs by LC-MS/MS analysis; format: ADME, organism-based; settings: in vivo, read-out: Vdss
[11] = biological target: T1, Receptor-interacting serine/threonine-protein kinase 1 (Homo sapiens, UniProt Q13546); assay: Binding affinity to wild-type human partial length RIPK1 (M1 to K305 residues) expressed in bacterial expression system measured after 1 hr by Kinomescan method
T1 sequence (Q13546 whole entry): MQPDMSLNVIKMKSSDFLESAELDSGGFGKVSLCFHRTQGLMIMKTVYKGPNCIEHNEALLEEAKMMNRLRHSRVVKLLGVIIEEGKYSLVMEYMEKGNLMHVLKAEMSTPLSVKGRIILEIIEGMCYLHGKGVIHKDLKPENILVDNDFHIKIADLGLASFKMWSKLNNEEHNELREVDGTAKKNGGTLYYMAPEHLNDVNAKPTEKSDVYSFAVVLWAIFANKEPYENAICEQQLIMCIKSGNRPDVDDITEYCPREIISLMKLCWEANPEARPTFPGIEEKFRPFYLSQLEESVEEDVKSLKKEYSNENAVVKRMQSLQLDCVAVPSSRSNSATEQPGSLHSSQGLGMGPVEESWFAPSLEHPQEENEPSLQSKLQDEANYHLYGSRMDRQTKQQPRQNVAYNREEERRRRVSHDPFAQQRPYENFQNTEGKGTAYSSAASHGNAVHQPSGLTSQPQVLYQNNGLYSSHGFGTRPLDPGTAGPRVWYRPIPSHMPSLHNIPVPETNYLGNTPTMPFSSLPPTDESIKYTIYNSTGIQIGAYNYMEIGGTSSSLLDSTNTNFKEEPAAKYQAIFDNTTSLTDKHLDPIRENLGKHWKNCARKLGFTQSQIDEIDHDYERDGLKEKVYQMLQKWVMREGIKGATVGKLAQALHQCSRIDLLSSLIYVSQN

[12] = biological target: Receptor-interacting serine/threonine-protein kinase 3 (Homo sapiens) (UniProt Q9Y572); assay: Binding affinity to wild-type human partial length RIPK3 (M1 to Q307 residues) expressed in bacterial expression system at 10000 nM measured after 1 hr by Kinomescan method
Chain of Receptor-interacting serine/threonine-protein kinase 3 (Homo sapiens) (Q9Y572 whole entry, looked up, the tested form may be a part): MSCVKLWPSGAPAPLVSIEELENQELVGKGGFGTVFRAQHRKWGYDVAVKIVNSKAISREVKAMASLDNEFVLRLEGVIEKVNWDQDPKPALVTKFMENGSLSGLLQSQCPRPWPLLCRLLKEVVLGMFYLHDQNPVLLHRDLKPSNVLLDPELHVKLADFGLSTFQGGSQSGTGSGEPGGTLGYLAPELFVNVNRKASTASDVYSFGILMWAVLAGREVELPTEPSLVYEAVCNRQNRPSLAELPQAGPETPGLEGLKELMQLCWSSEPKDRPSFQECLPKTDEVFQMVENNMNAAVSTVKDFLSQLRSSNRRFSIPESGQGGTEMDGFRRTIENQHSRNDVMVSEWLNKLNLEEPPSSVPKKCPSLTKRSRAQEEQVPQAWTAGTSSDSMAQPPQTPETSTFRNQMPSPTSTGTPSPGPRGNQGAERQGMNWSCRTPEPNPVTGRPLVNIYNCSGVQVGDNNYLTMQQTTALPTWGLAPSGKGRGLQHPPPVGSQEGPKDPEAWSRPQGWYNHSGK

[13] = biological target: T1, Receptor-interacting serine/threonine-protein kinase 1; assay: Inhibition of RIPK1 (unknown origin) using MBP and ATP as substrate preincubated for 10 mins followed by substrate addition and measured after 120 mins by ADP-Glo luminescence assay
[14] = Toxicity in C57BL/6J mouse assessed as effect on heart morphological changes at 5 to 25 mg/kg, po administered daily for 7 days by Hand E staining method; format: organism-based; settings: in vivo, 168 h, dose 5-25 mg/kg, time 7 day
[15] = Toxicity in C57BL/6J mouse assessed as effect on spleen morphological changes at 5 to 25 mg/kg, po administered daily for 7 days by H and E staining method; format: organism-based; settings: in vivo, 168 h, dose 5-25 mg/kg, time 7 day
[16] = Toxicity in C57BL/6J mouse assessed as effect on kidney morphological changes at 5 to 25 mg/kg, po administered daily for 7 days by H and E staining method; format: organism-based; settings: in vivo, 168 h, dose 5-25 mg/kg, time 7 day
[17] = Toxicity in C57BL/6J mouse assessed as effect on lung morphological changes at 5 to 25 mg/kg, po administered daily for 7 days by H and E staining method; format: organism-based; settings: in vivo, 168 h, dose 5-25 mg/kg, time 7 day
[18] = Half life in Sprague-Dawley rat at 2 mg/kg, iv measured upto 24 hrs by LC-MS/MS analysis; format: ADME, organism-based; settings: in vivo
[19] = Cmax in Sprague-Dawley rat at 10 mg/kg, po measured upto 24 hrs by LC-MS/MS analysis; format: ADME, organism-based; design: route oral, dose 10 mg/kg, time <=24; settings: in vivo
[20] = AUC (0 to 24 hrs) in Sprague-Dawley rat at 2 mg/kg, iv measured upto 24 hrs by LC-MS/MS analysis; format: ADME, organism-based; design: route intravenous, dose 2 mg/kg, time <=24; settings: in vivo
Mus musculus = assay: Anti-necroptosis activity against TNFalpha-induced C57BL/6J mouse systemic inflammatory response syndrome model assessed as reduction in hypothermia at 3 mg/kg, ip pretreated for 15 mins and measured upto 72 hrs after TNFalpha stimulation; format: functional, organism-based
[21] = Toxicity in C57BL/6J mouse assessed as effect on food intake at 5 to 25 mg/kg, po administered daily for 7 days; format: organism-based; settings: in vivo, 168 h, dose 5-25 mg/kg, time 7 day
[22] = Protein binding in rat plasma assessed as unbound fraction by LC-MS/MS based equilibrium dialysis method; format: ADME, cell-free

## Cc1ncc(-c2ccc3nc(NC(=O)C4CC4)sc3c2)cc1NC(=O)OC1CCOCC1
[1]
  Cmax: 1330 ng/mL
[2]
  efflux ratio: 1.1
L929
  EC50: 30 nM
[3]
  half-life: 1.48 h
[4]
  IC50: > 30000 nM
CYP2C9
  inhibition at 20 min, 10 µM: 62%
CYP2C19
  inhibition at 20 min, 10 µM: 41%
CYP2D6
  inhibition at 20 min, 10 µM: 21%
CYP3A4
  inhibition at 20 min, 10 µM: 17%
[5]
  fraction unbound: 0.016
[6]
  fraction unbound: 0.018
[7]
  half-life: 0.65 h
[8]
  CLint scaled: 159 mL/min/kg
[9]
  AUC: 1208 ng·h/mL
[10]
  Vd: 2.4 L/kg
[11]
  Kd: 9.2 nM
[12]
  Activity: inactive
[13]
  IC50: 67 nM
[14]
  Activity: Non-Toxic
[15]
  Activity: Non-Toxic
[16]
  Activity: Non-Toxic
[17]
  Activity: Non-Toxic
[18]
  half-life: 1 h
[19]
  Cmax: 1240 ng/mL
[20]
  AUC: 1208 ng·h/mL
Mus musculus
  Activity: Active
[21]
  Activity: Non-Toxic
[22]
  fraction unbound: 0.018

From ChEMBL document CHEMBL5046240, “Design, synthesis, and evaluation of potent RIPK1 inhibitors with in vivo anti-inflammatory activity” (Eur J Med Chem, 2022)
